Paper PMC6815936, “A Pan-Cyclophilin Inhibitor, CRV431, Decreases Fibrosis and Tumor Development in Chronic Liver Disease Models” (The Journal of Pharmacology and Experimental Therapeutics, 2019)

System: CCl4-induced liver fibrosis in C57BL/6 mice
Assay: Carbon tetrachloride mouse model of liver fibrosis
Format: in vivo
Conditions: OCA 10 mg/kg per day; combination 50 and 10 mg/kg per day, oral, 6 weeks
Description: Carbon tetrachloride (CCl4)–induced liver fibrosis was conducted in C57BL/6J male mice starting at 7 weeks of age. Mice were injected intraperitoneally twice per week with 0.5–0.75 ml/kg CCL4 (289116; Sigma-Aldrich) and corn oil (0.05 ml total dose per mouse) for 6 weeks. CRV431, obeticholic acid (OCA, HY-12222; MedChemExpress), and vehicle were administered by daily oral gavage for the entire duration of the study. CRV431 and OCA were dissolved in a self-microemulsifying drug vehicle ([Trepanier et al., 2018]), and then diluted with PBS. CRV431 was administered at 50 mg/kg per day, and OCA was administered at 10 mg/kg per day.
Blood and livers were collected at the end of the NASH and CCl4 studies. In some studies, serum or plasma was isolated from freshly-collected blood, whereas in other studies blood was frozen for later analysis of CRV431 concentration. Livers were immersion-fixed in zinc-formalin and paraffin-embedded for histologic processing. Liver sections were stained with hematoxylin and eosin for assessment of inflammation, ballooning, and steatosis, and with sirius red for assessment of collagen I and III (fibrosis). Sirius red staining was quantified by blinded analysis in one section per liver using ImageJ software. […]

CC[C@H]1[C@@H](O)[C@@H]2[C@H](CC[C@]3(C)[C@@H]([C@H](C)CCC(=O)O)CC[C@@H]23)[C@@]2(C)CC[C@@H](O)C[C@@H]12 [OCA, obeticholic acid, reference compound]
effect on liver fibrosis, sirius red staining (in words): no statistically significant effect
